Reference: ChEMBL document CHEMBL2016454, “Design and synthesis of dihydrobenzofuran amides as orally bioavailable, centrally active γ-secretase modulators” (Bioorg Med Chem Lett, 2012)
pIC50: −log10 of the molar value. The source made the active and inactive calls. The rule behind the calls is not given here.

Assays:
[1] = Inhibition of gamma secretase expressed in CHO cells expressing APP assessed as amyloid beta42 production; assay type: cell-based
[2] = Intrinsic clearance in human liver microsomes; assay type: ADME, Microsome; settings: read-out: CLH
MDR1 (P-gp), human = assay: Efflux ratio of permeability in MDCK cells over expressing human MDR1; assay type: ADME, cell-based, Canis lupus familiaris; settings: dog
Brain = assay: Ratio of drug level in p-gp knock-out mouse brain to wild type mouse brain; assay type: ADME, tissue-based; settings: in vivo
Cavia porcellus [3] = assay: Antialzheimer activity in Hartley guinea pig assessed as reduction of amyloid beta42 level in brain at 100 mg/kg, po after 4 hrs; assay type: functional; parameters: scale not given: the % may be the effect or the level left
[4] = Fraction unbound in Hartley guinea pig plasma at 100 mg/kg, po after 4 hrs post dose; assay type: ADME, organism-based, Cavia porcellus; parameters: dose 100 mg/kg, route oral
[5] = Drug uptake in Hartley guinea pig brain at 100 mg/kg, po after 4 hrs post dose; assay type: ADME, organism-based, Cavia porcellus; parameters: dose 100 mg/kg, route oral; settings: read-out: Drug uptake
[6] = Total plasma concentration in Hartley guinea pig at 100 mg/kg, po after 4 hrs post dose; assay type: ADME, organism-based, Cavia porcellus; parameters: dose 100 mg/kg, route oral
Cavia porcellus [7] = assay: Antialzheimer activity in Hartley guinea pig assessed as effect on total amyloid beta level in brain at 100 mg/kg, po after 4 hrs; assay type: functional, organism-based; parameters: dose 100 mg/kg
[8] = Volume of distribution at steady state in rat; assay type: ADME, organism-based; settings: in vivo, read-out: Vdss
[9] = Fraction unbound in Hartley guinea pig brain at 100 mg/kg, po after 4 hrs post dose […]; assay type: ADME, organism-based, Cavia porcellus; parameters: dose 100 mg/kg, route oral
Gamma-secretase = assay: Inhibition of gamma-secretase expressed in human HEK293 NdeltaE cells assessed as cleavage of Notch; assay type: cell-based
[10] = Oral bioavailability in rat; assay type: ADME, organism-based; settings: in vivo
[11] = Ratio of fraction unbound in Hartley guinea pig brain to IC50 of gamma secretase expressed in CHO cells expressing APP assessed as amyloid beta42 production; assay type: ADME, cell-based
[12] = Half life in rat; assay type: ADME, organism-based; settings: in vivo
[13] = Clearance in rat; assay type: ADME, organism-based; settings: in vivo
Cavia porcellus [14] = assay: Antialzheimer activity in Hartley guinea pig assessed as reduction of amyloid beta40 level in brain at 100 mg/kg, po after 4 hrs; assay type: functional; parameters: scale not given: the % may be the effect or the level left
Cavia porcellus [15] = assay: Antialzheimer activity in Hartley guinea pig assessed as effect on total amyloid beta level in plasma at 100 mg/kg, po after 4 hrs; assay type: functional, organism-based; parameters: dose 100 mg/kg
Cavia porcellus [16] = assay: Antialzheimer activity in Hartley guinea pig assessed as increase of amyloid beta38 level in plasma at 100 mg/kg, po after 4 hrs; assay type: functional
Cytochrome P450 2D6 = Cytochrome P450 2D6 (Homo sapiens, UniProt P10635); assay: Inhibition of CYP2D6; assay type: ADME
Cytochrome P450 3A4 = Cytochrome P450 3A4 (Homo sapiens, UniProt P08684); assay: Inhibition of CYP3A4; assay type: ADME
Cytochrome P450 3A4, sequence (P08684 whole entry): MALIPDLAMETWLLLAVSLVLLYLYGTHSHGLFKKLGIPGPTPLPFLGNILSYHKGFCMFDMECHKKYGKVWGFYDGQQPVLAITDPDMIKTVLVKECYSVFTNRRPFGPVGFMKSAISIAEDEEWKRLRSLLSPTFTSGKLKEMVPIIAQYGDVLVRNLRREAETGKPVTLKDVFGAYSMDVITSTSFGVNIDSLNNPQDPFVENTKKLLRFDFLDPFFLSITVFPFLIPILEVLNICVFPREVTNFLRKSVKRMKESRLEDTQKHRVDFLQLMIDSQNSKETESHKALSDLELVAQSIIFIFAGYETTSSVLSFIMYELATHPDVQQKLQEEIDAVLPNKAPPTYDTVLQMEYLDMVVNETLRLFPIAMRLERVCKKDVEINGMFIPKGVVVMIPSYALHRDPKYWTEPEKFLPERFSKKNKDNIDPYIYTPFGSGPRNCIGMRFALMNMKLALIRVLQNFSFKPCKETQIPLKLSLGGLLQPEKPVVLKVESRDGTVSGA

Cytochrome P450 2D6, sequence (P10635 whole entry): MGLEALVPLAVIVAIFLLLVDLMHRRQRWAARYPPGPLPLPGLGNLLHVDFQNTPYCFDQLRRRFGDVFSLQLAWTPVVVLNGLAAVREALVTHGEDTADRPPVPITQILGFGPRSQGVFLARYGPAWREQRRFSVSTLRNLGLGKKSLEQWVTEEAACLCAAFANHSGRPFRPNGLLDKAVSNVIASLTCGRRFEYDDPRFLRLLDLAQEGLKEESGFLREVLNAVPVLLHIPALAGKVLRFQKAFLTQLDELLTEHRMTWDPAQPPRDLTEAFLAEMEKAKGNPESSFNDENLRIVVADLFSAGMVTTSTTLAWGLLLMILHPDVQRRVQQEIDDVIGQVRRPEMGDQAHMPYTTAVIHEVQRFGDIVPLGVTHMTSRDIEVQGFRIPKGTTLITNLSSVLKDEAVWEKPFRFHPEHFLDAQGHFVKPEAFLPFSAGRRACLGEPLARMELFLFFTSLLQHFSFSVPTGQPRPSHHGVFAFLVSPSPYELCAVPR

Row | SMILES | pIC50 [1] | microsomal CLint [2] | efflux ratio (MDR1 (P-gp), human) | other results
1 | COc1nc(C(=O)N2CC[C@H](Oc3ccccc3C(F)(F)F)C2)cnc1-n1cnc(C)c1 | 6.27 | – | – | –
2 | COc1nc(C(=O)N2CC[C@H](Oc3ccccc3C(F)(F)F)C2)ccc1-n1cnc(C)c1 | 6.68 | 48.7 µL/min/mg | 1.1 | –
3 | COc1cc(C(=O)N2CC[C@H](Oc3ccccc3C(F)(F)F)C2)ccc1-n1cnc(C)c1 | 6.49 | 50.8 µL/min/mg | 2.5 | –
4 | COc1cc(C(=O)NCc2cnc(-c3ccccc3)s2)ccc1-n1cnc(C)c1 | 6.48 | 29.3 µL/min/mg | 3.2 | Ratio (Brain): 5
5 | COc1cc(C(=O)N[C@H]2COc3ccc(Cl)cc32)ccc1-n1cnc(C)c1 | 6.28 | 22.3 µL/min/mg | 1.6 | Activity (Cavia porcellus [3]): 57%; fraction unbound at 4 h [4]: 0.088; concentration at 4 h [5]: 22100 ng/g; concentration at 4 h [6]: 5120 ng/mL; Activity (Cavia porcellus [7]): inactive; Vd [8]: 1.87 L; fraction unbound at 4 h [9]: 0.018; pIC50 (Gamma-secretase): < 4.30; bioavailability [10]: 100%; Ratio [11]: 2.1; half-life [12]: 2.43 h; clearance [13]: 9.63 mL/min/kg; Activity (Cavia porcellus [14]): 32%; Activity (Cavia porcellus [15]): inactive; Activity (Cavia porcellus [16]): 72%
6 | COc1cc(C(=O)N[C@H]2COc3c(Cl)cccc32)ccc1-n1cnc(C)c1 | 5.77 | 19.4 µL/min/mg | – | –
7 | COc1cc(C(=O)N2CC[C@](O)(COc3ccccc3C(F)(F)F)C2)ccc1-n1cnc(C)c1 | 6.59 | 124 µL/min/mg | 24 | –
8 | CCOc1cc(C)c(CN(C(=O)c2ccc(-n3cnc(C)c3)c(OC)c2)C2CC2)cc1C(C)C | 6.94 | 122 µL/min/mg | – | –
9 | COc1cc(C(=O)N[C@@H](C)c2ccc(F)cc2)ccc1-n1cnc(C)c1 | 5.36 | 12.6 µL/min/mg | 1.1 | –
10 | COc1cc(C(=O)NCc2nnc(-c3cccc(Cl)c3)o2)ccc1-n1cnc(C)c1 | 5.84 | – | 8.7 | –
11 | COc1cc(C(=O)N[C@H]2CCc3ccc(Cl)cc32)ccc1-n1cnc(C)c1 | 6.22 | 32.7 µL/min/mg | 0.5 | –
12 | COc1cc(C(=O)NCc2cccc(C(F)(F)F)c2)ccc1-n1cnc(C)c1 | 6.18 | 29.2 µL/min/mg | 1.8 | –
13 | COc1nc(C(=O)N[C@H]2COc3ccc(Cl)c(F)c32)ccc1-n1cnc(C)c1 | 6.73 | 30 µL/min/mg | 1.4 | Activity (Cavia porcellus [3]): 36%; fraction unbound at 4 h [4]: 0.078; concentration at 4 h [5]: 3710 ng/g; concentration at 4 h [6]: 1290 ng/mL; Vd [8]: 1.78 L; fraction unbound at 4 h [9]: 0.0097; pIC50 (Cytochrome P450 2D6): < 4.52; pIC50 (Gamma-secretase): < 4.30; bioavailability [10]: 51%; Ratio [11]: 0.31; half-life [12]: 0.64 h; clearance [13]: 31.4 mL/min/kg; pIC50 (Cytochrome P450 3A4): < 4.52; Activity (Cavia porcellus [14]): 16%
14 | COc1cc(C(=O)NC2COc3ccc(F)cc32)ccc1-n1cnc(C)c1 (racemic) | 5.81 | 21.8 µL/min/mg | – | –
15 | COc1ccc2c(c1)[C@@H](NC(=O)c1ccc(-n3cnc(C)c3)c(OC)c1)CO2 | 5.52 | 16.9 µL/min/mg | – | –
16 | COc1nc(C(=O)NC2COc3ccc(Cl)c(C)c32)ccc1-n1cnc(C)c1 (racemic) | 6.63 | 49.3 µL/min/mg | 1.8 | –
17 | COc1cc(C(=O)N2CC[C@H](Oc3ccccc3C(F)(F)F)C2)ncc1-n1cnc(C)c1 | 5.27 | – | – | –
18 | COc1cc(C(=O)NC2COc3cc(Cl)ccc32)ccc1-n1cnc(C)c1 (racemic) | 5.71 | 35.6 µL/min/mg | – | –
19 | COc1cc(C(=O)NC2COc3cccc(Cl)c32)ccc1-n1cnc(C)c1 (racemic) | 5.78 | 97.3 µL/min/mg | 1.7 | –
20 | COc1cc(C(=O)N2CC[C@H](Oc3ccccc3C(F)(F)F)C2)cnc1-n1cnc(C)c1 | 5.46 | – | 1.6 | –
21 | COc1cc(/C=C2\CCCN([C@@H](C)c3ccc(F)cc3)C2=O)ccc1-n1cnc(C)c1 | 6.84 | 37.1 µL/min/mg | 2.2 | –
22 | COc1cc(C(=O)NCc2cc(-c3cccc(Cl)c3)no2)ccc1-n1cnc(C)c1 | 6.48 | 30 µL/min/mg | 3.8 | –
23 | COc1nc(C(=O)N[C@H]2COc3ccc(Cl)cc32)ccc1-n1cnc(C)c1 | 6.46 | 28 µL/min/mg | 1.3 | –
24 | COc1cc(C(=O)NCC2(c3ccc(F)cc3)CCC2)ccc1-n1cnc(C)c1 | 6.51 | 112 µL/min/mg | 1.6 | –
